Measured values as given in US20220339260A1, “METHOD FOR PRODUCING INSULIN-PRODUCING CELL USING DIHYDROINDOLIZINONE DERIVATIVES” (TOKYO INSTITUTE OF TECHNOLOGY, priority 2019, published 2022).

Tested on: human iPS cell Toe strain
Experiment: Effect to promote differentiation from human iPS cells into insulin-producing cells (insulin-positive cell rate, Reference Example 1)
Format: cell-based
Set-up: key to Activity: the sum of activity values at the two concentrations was obviously higher than the control untreated with compounds while being lower than the positive control was expressed as +; the sum was equivalent to the positive control was expressed as ++; the sum was higher than the positive control was expressed as +++
Settings: activity intensity: sum of activity values (increment in insulin-positive cell rate) at 2 μM and 10 μM compared with positive control (compound of Synthesis Example 1)
Description: The evaluation system of the effect (efficacy) to promote differentiation from human iPS cells into insulin-producing cells was constructed with reference to known information (Non Patent Document 6). Further, the medium used in each differentiation stage was also produced with reference to known information (differentiation media A to E (Media A to E) described in Non Patent Document 6 were used respectively for stages 1 to 5; however, a medium free from GLP-1 receptor agonist and nicotinamide was used as differentiation medium E).
In order to evaluate the efficacy of each compound, the compound of Synthesis Example 1 was used as a positive control, and dimethylsulfoxide (DMSO) (SIGMA, D2650) with a final concentration of 0.1% was used as a control untreated with compounds. Each compound was dissolved in DMSO, and two types of compound solutions were prepared so as to have final concentrations of 2 μM and 10 μM after the compound was added to the medium. In the following evaluation, the compound solutions were added to the medium to 0.1% that is the final concentration of DMSO.
First, induction from human iPS cell Toe strain (National Institutes of Biomedical Innovation, Health and Nutrition) into cells on day 7 of culture (2 days after replacement with differentiation medium C (cells in the differentiation process from FOXA2-positive primitive gut tube cells into PDX1-positive pancreatic progenitor cells)) was performed according to the method of Non Patent Document 6 for “inducing differentiation from human iPS cells into pancreatic β cells”, and the cells were collected and thereafter stored in liquid nitrogen using Bambanker (NIPPON Genetics Co, Ltd.) at 1×10^7 cells/mL/tube, to produce a cell stock for evaluation. The cell stock was dissolved at the start of the evaluation of efficacy, suspended in differentiation medium C for stage 3 (DMEM high glucose (Life technologies, 11965092), 0.25 μM SANT-1, 0.1 μM LDN193189 (Stemgent, 04-0074), 10 μM SB431542, 2 μM Retinoic acid (Stemgent, 04-0021), 1% B27 serum free supplement (Life technologies, 17504044) and thereafter seeded in a 96-well plate (Corning, #3340) coated with Synthemax II (Corning, #5656) at 1×10^5 cells/well. After culturing for 2 days, the medium was removed, and new differentiation medium C for stage 3 with the compound or only DMSO added was added thereto at 100 μL/well. After culturing for 2 days, the medium was removed, and new differentiation medium D for stage 4 (DMEM high glucose, 0.1 μM LDN193189, 5 μM TGF-β type I receptor kinase inhibitor II (Calbiochem 616452), 0.3 μM (−)-indolactam V (Enzo life science ALX-420-011-C300), 1% B27 serum free supplement) with the compound or only DMSO added was added thereto at 100 μL/well. After culturing for 2 to 3 days, the medium was removed, and new differentiation medium E for stage 5 (GLP-1 receptor agonist and nicotinamide-free; Knockout […] (Life technologies, 12660012), 1% B27 serum free supplement) with the compound or only DMSO added was added thereto at 200 μL/well. After culturing for 2 days, the medium was removed, and a 4% paraformaldehyde phosphorus acid buffer (Wako, 163-20145) was added thereto at 150 μL/well and left standing for 30 to 60 minutes at room temperature to fix the cells. A phosphorus acid buffer (PBS) (Takara, T9181) containing 1% Triton X-100 (Sigma, T8787) was left standing for 15 minutes at room temperature, then washed with PBS-T (Takara, T9183), and was blocked for 1 hour using 20% Blocking One (Nacalai tesque, Tokyo, Japan) diluted with PBS-T at room temperature. After the removal of Blocking One, guinea pig anti-insulin antibody (Abcam, ab7842) diluted 200-fold with 20% Blocking One was added thereto at 50 μL/well, followed by standing at 4° C. overnight. […]

| SMILES | Activity |
| --- | --- |
| O=C1CCC(C(=O)Nc2ncc(-c3ccccc3)s2)n2cccc21 (stereo not shown) [Example 1] | ++ |
| COC(=O)c1ccc(-c2cnc(NC(=O)C3CCC(=O)c4cccn43)s2)cc1 (stereo not shown) [Example 2] | ++ |
| CN(C)C(=O)c1ccc(-c2cnc(NC(=O)C3CCC(=O)c4cccn43)s2)cc1 (stereo not shown) [Example 3] | + |
| O=C1CCC(C(=O)Nc2ncc(-c3ccc4c(c3)OCO4)s2)n2cccc21 (stereo not shown) [Example 4] | ++ |
| O=C(O)c1ccc(-c2cnc(NC(=O)C3CCC(=O)c4cccn43)s2)cc1 (stereo not shown) [Example 5] | + |
| NC(=O)c1ccc(-c2cnc(NC(=O)C3CCC(=O)c4cccn43)s2)cc1 (stereo not shown) [Example 6] | + |
| N#Cc1ccc(-c2cnc(NC(=O)C3CCC(=O)c4cccn43)s2)cc1 (stereo not shown) [Example 7] | + |
| CN(C)C(=O)COc1ccc(-c2cnc(NC(=O)C3CCC(=O)c4cccn43)s2)cc1 (stereo not shown) [Example 8] | ++ |
| O=C1CCC(C(=O)Nc2ncc(-c3ccc(OC(F)(F)F)cc3)s2)n2cccc21 (stereo not shown) [Example 9] | +++ |
| CC(C)(C)Oc1ccc(-c2cnc(NC(=O)C3CCC(=O)c4cccn43)s2)cc1 (stereo not shown) [Example 11] | +++ |
| O=C1CCC(C(=O)Nc2ncc(-c3ccc(Cl)cc3)s2)n2cccc21 (stereo not shown) [Example 12] | ++ |
| O=C1CCC(C(=O)Nc2ncc(-c3cccc(Cl)c3)s2)n2cccc21 (stereo not shown) [Example 13] | ++ |
| O=C1CCC(C(=O)Nc2ncc(-c3ccccc3Cl)s2)n2cccc21 (stereo not shown) [Example 14] | + |
| O=C1CCC(C(=O)Nc2ncc(-c3cccc(F)c3)s2)n2cccc21 (stereo not shown) [Example 15] | + |
| O=C1CCC(C(=O)Nc2ncc(-c3ccc(F)cc3)s2)n2cccc21 (stereo not shown) [Example 16] | ++ |
| O=C1CCC(C(=O)Nc2ncc(-c3ccccc3F)s2)n2cccc21 (stereo not shown) [Example 17] | ++ |
| Cc1ccc(-c2cnc(NC(=O)C3CCC(=O)c4cccn43)s2)cc1 (stereo not shown) [Example 18] | ++ |
| Cc1ccccc1-c1cnc(NC(=O)C2CCC(=O)c3cccn32)s1 (stereo not shown) [Example 19] | ++ |
| Cc1cccc(-c2cnc(NC(=O)C3CCC(=O)c4cccn43)s2)c1 (stereo not shown) [Example 20] | ++ |
| O=C1CCC(C(=O)Nc2ncc(-c3ccc(C(F)(F)F)cc3)s2)n2cccc21 (stereo not shown) [Example 21] | +++ |
| COc1ccccc1-c1ccc(-c2cnc(NC(=O)C3CCC(=O)c4cccn43)s2)cc1 (stereo not shown) [Example 22] | +++ |

| SMILES | Activity |
| --- | --- |
| Cc1ccc(-c2ccc(-c3cnc(NC(=O)C4CCC(=O)c5cccn54)s3)cc2)cc1 (stereo not shown) [Example 23] | + |
| O=C1CCC(C(=O)Nc2ncc(-c3ccc4ccccc4c3)s2)n2cccc21 (stereo not shown) [Example 24] | + |
| O=C1CCC(C(=O)Nc2ncc(-c3cccc(OC(F)(F)F)c3)s2)n2cccc21 (stereo not shown) [Example 25] | +++ |
| COc1ccc(-c2cnc(NC(=O)C3CCC(=O)c4cccn43)s2)cc1 (stereo not shown) [Example 26] | ++ |
| COc1cccc(-c2cnc(NC(=O)C3CCC(=O)c4cccn43)s2)c1 (stereo not shown) [Example 27] | ++ |
| Cc1cc(OC(F)(F)F)ccc1-c1cnc(NC(=O)C2CCC(=O)c3cccn32)s1 (stereo not shown) [Example 28] | +++ |
| Cc1cc(-c2cnc(NC(=O)C3CCC(=O)c4cccn43)s2)ccc1OC(F)(F)F (stereo not shown) [Example 29] | +++ |
| O=C1CCC(C(=O)Nc2ncc(-c3ccc(OC(F)(F)F)c(Cl)c3)s2)n2cccc21 (stereo not shown) [Example 30] | +++ |
| O=C1CCC(C(=O)Nc2ncc(-c3ccc(OC(F)(F)F)c(CO)c3)s2)n2cccc21 (stereo not shown) [Example 31] | + |
| O=C1CCC(C(=O)Nc2ncc(-c3ccc(OCc4ccccc4)cc3)s2)n2cccc21 (stereo not shown) [Example 32] | +++ |
| CC(C)Oc1ccc(-c2cnc(NC(=O)C3CCC(=O)c4cccn43)s2)cc1 (stereo not shown) [Example 33] | +++ |
| Cc1nc(NC(=O)C2CCC(=O)c3cccn32)sc1-c1ccccc1 (stereo not shown) [Example 34] | ++ |
| Cc1nc(NC(=O)C2CCC(=O)c3cccn32)sc1-c1ccc(OC(C)(C)C)cc1 (stereo not shown) [Example 35] | +++ |
| Cc1nc(NC(=O)C2CCC(=O)c3cccn32)sc1-c1ccc(OC(F)(F)F)cc1 (stereo not shown) [Example 36] | +++ |
| O=C1CCC(C(=O)Nc2ncc(-c3ccc(CO)cc3)s2)n2cccc21 (stereo not shown) [Example 37] | + |
| COCCOc1ccc(-c2cnc(NC(=O)C3CCC(=O)c4cccn43)s2)cc1 (stereo not shown) [Example 38] | +++ |
| O=C1CCC(C(=O)Nc2ncc(-c3ccc(OC(F)F)cc3)s2)n2cccc21 (stereo not shown) [Example 39] | +++ |
| O=C1CCC(C(=O)Nc2ncc(-c3ccc4c(c3)OC(F)(F)O4)s2)n2cccc21 (stereo not shown) [Example 40] | +++ |
| O=C1CCC(C(=O)Nc2ncc(-c3ccc(N4CCOCC4)cc3)s2)n2cccc21 (stereo not shown) [Example 41] | + |
| CN(C)S(=O)(=O)c1ccc(-c2cnc(NC(=O)C3CCC(=O)c4cccn43)s2)cc1 (stereo not shown) [Example 42] | + |
| O=C1CCC(C(=O)Nc2ncc(-c3ccc(OCc4ccccc4)c(F)c3)s2)n2cccc21 (stereo not shown) [Example 43] | +++ |

| SMILES | Activity |
| --- | --- |
| O=C1CCC(C(=O)Nc2ncc(-c3ccc(OCc4ccccc4)cc3F)s2)n2cccc21 (stereo not shown) [Example 44] | + |
| O=C1CCC(C(=O)Nc2ncc(-c3ccc(OCC(F)(F)F)cc3)s2)n2cccc21 (stereo not shown) [Example 45] | +++ |
| O=C1CCC(C(=O)Nc2ncc(-c3ccc(Oc4ccccc4)cc3)s2)n2cccc21 (stereo not shown) [Example 46] | +++ |
| O=C1CCC(C(=O)Nc2ncc(-c3ccc(Br)cc3)s2)n2cccc21 (stereo not shown) [Example 47] | ++ |
| CC(C)(C)OC(=O)Oc1ccc(-c2cnc(NC(=O)C3CCC(=O)c4cccn43)s2)cc1 (stereo not shown) [Example 48] | + |
| CC(C)COc1ccc(-c2cnc(NC(=O)C3CCC(=O)c4cccn43)s2)cc1 (stereo not shown) [Example 49] | +++ |
| O=C1CCC(C(=O)Nc2ncc(C3=CCCCC3)s2)n2cccc21 (stereo not shown) [Example 50] | + |
| CC(C)(C)OC(=O)N1CC=C(c2cnc(NC(=O)C3CCC(=O)c4cccn43)s2)CC1 (stereo not shown) [Example 51] | +++ |
| CC(C)COc1ncc(-c2cnc(NC(=O)C3CCC(=O)c4cccn43)s2)cc1Cl (stereo not shown) [Example 52] | +++ |
| CC(C)(C)OC(=O)N1CC=C(c2cnc(NC(=O)C3CCC(=O)c4cccn43)s2)C1 (stereo not shown) [Example 53] | ++ |
| Cc1ccc(-c2cnc(NC(=O)C3CCC(=O)c4cccn43)s2)o1 (stereo not shown) [Example 54] | + |
| Cc1nc(C)c(-c2cnc(NC(=O)C3CCC(=O)c4cccn43)s2)s1 (stereo not shown) [Example 55] | + |
| O=C1CCC(C(=O)Nc2ncc(-c3ccc(Cl)s3)s2)n2cccc21 (stereo not shown) [Example 56] | ++ |
| CC(=O)c1ccc(-c2cnc(NC(=O)C3CCC(=O)c4cccn43)s2)cc1 (stereo not shown) [Example 57] | + |
| O=C1CC(C(=O)Nc2ncc(-c3ccc(OC(F)(F)F)cc3)s2)n2cccc21 (stereo not shown) [Example 58] | ++ |
| O=C1CCC(C(=O)Nc2nc3ccc(-c4ccc(OC(F)(F)F)cc4)cc3s2)n2cccc21 (stereo not shown) [Example 59] | +++ |
| O=C1CCC(C(=O)Nc2nc3ccc(-c4ccc(OC(F)F)cc4)cc3s2)n2cccc21 (stereo not shown) [Example 60] | ++ |
| O=C1CCC(C(=O)Nc2nc3ccc(-c4ccc5c(c4)OC(F)(F)O5)cc3s2)n2cccc21 (stereo not shown) [Example 61] | + |
| Cc1cc2n(c1)C(C(=O)Nc1ncc(-c3ccc(OC(F)(F)F)cc3)s1)CCC2=O (stereo not shown) [Example 62] | +++ |
